For data set [1], the target named is T1, Cyclooxygenase-1 from Ram Seminal Vesicle Microsomes (RSVM) (Ovis aries, UniProt P05979).
T1 construct: ram seminal vesicles were homogenised by a blender; from tissue; host or cells: ram seminal vesicles (microsomes)
T1 sequence (P05979 25-600): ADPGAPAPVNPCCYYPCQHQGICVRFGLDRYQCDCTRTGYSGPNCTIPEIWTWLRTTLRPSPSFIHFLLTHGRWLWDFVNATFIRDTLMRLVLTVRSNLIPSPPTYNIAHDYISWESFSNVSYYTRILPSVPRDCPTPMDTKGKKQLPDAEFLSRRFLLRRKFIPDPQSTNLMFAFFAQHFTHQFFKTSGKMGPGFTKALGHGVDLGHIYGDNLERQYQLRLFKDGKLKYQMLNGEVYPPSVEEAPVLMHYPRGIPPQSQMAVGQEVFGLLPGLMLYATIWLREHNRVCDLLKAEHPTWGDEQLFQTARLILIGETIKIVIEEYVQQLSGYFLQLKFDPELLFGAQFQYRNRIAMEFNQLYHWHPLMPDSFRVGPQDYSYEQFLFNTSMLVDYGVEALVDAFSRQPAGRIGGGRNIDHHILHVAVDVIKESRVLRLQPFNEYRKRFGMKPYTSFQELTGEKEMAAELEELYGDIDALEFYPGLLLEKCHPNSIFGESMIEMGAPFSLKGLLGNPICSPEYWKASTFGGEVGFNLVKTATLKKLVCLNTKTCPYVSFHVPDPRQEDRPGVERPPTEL
Description: Inhibitory activity on cyclooxygenase-1 from ram seminal vesicle microsomes (PGE2 ELISA). The data set is classed as biochemical. Particulars: PGE2 formation, read-out: Inhibitory Effect on COX-1[IC50(μM)]. The procedure: (§1) In order to prepare cyclooxygenase-1 (COX-1) microsomes, ram seminal vesicles were homogenised by a blender. To prepare cyclooxygenase-2 (COX-2) microsomes, an expression vector which contains the human COX-2 gene was introduced into COS cells. The cells were homogenised by sonication after 66 hours cultivation. Microsomes were then prepared in accordance with conventional methods. Enzyme activity was assayed as follows. The assay mixture contained 10 μl of COX-1 or COX-2 microsomes (5 to 15 μg), 2 μl of sample dissolved in dimethyl sulfoxide, 50 μl of 200 mM Tris (pH 7.6), 10 μl of 20 mM reduced glutathione, 10 μl of 10 mM epinephrine, and 15.5 μl of distilled water. After preincubation at 37° C. for 15 minutes, 2.5 μl of 10 μM arachidonic acid (dissolved in ethanol) were then added to the mixture (final volume of 100 μl) and allowed to react at 37° C. for 30 minutes. The final dimethyl sulfoxide and ethanol concentrations were 2% and 2.5%, respectively. To the reaction mixture were then added 15 μl of ice-cooled 0.2M HCl to stop the reaction, and the mixture was cooled at 4° C. for 5 minutes. 15 μl of a 0.2M aqueous solution of sodium hydroxide were then added to the reaction mixture to neutralise the pH. The amount of PGE2, in the reaction mixture was measured using a commercially available ELISA kit (Cayman). IC50 was calculated from the regression line determined by the inhibition rates of PGE2 formation and the concentrations of the compound.

Data set [2] addresses T2, Human Recombinant Cyclooxygenase-2 (Homo sapiens, UniProt P35354).
T2 construct: made in house; host or cells: COS cells (transient expression; microsomes prepared after 66 hours)
T2 sequence (P35354 18-604): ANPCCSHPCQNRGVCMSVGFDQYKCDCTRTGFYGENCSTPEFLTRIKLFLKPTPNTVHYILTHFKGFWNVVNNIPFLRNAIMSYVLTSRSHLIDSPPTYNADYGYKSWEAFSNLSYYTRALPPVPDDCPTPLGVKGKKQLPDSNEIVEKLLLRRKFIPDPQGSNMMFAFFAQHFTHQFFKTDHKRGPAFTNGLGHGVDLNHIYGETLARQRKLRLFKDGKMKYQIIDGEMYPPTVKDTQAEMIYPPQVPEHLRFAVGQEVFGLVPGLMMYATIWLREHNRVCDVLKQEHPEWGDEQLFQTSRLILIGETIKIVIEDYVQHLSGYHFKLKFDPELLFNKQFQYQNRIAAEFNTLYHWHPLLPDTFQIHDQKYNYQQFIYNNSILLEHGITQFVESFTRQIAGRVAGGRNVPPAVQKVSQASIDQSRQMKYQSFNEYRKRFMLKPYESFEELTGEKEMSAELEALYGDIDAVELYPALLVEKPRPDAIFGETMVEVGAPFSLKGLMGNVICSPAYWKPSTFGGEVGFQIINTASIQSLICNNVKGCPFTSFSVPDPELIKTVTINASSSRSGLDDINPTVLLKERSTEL
Put plainly: Inhibitory activity on human recombinant cyclooxygenase-2 microsomes from COS cells (PGE2 ELISA). The data set is classed as biochemical. Particulars: for IC50: human recombinant COX-2 microsomes, PGE2 formation, read-out: Inhibitory Effect on COX-2 [IC50 (μM)]; for Selectivity (COX-1/COX-2): ratio of IC50 COX-1/COX-2. As to the method: In order to prepare cyclooxygenase-1 (COX-1) microsomes, ram seminal vesicles were homogenised by a blender. To prepare cyclooxygenase-2 (COX-2) microsomes, an expression vector which contains the human COX-2 gene was introduced into COS cells. The cells were homogenised by sonication after 66 hours cultivation. Microsomes were then prepared in accordance with conventional methods.
Enzyme activity was assayed as follows.
as §1, with “The” for “In order to prepare cyclooxygenase-1 (COX-1) microsomes, ram seminal vesicles were homogenised by a blender. To prepare cyclooxygenase-2 (COX-2) microsomes, an expression vector which contains the human COX-2 gene was introduced into COS cells. The cells were homogenised by sonication after 66 hours cultivation. Microsomes were then prepared in accordance with conventional methods. Enzyme activity was assayed as follows. The”
(ELISA stands for enzyme-linked immunosorbent assay.)

Data set [3] deals with Carrageenan-induced Paw Edema in rats. Put plainly: Carrageenan-induced paw edema test. To be noted: Rattus norvegicus, oral, 3 hours after carrageenan, read-out: Inhibition Rate (%). The data set is classed as in vivo, Wistar-Imamichi rats. As to the method: The same test compounds were subjected to the test as those in the Randall-Selitto test of Experiment 3. Wistar-Imamichi rats (males, 6 week old, body weights: 110-120 g) were used in this test.
The method of Winter, et al. [Proc. Soc. Exp. Biol. Med. 111, 544-547, (1962)] was slightly modified to perform the test [Sankyo Annual Research Report 39, 77-111, (1989)]. The rats were fasted for 16 hours prior to use. Inflammatory edema was induced by the subcutaneous injection of 0.05 ml of a 1% carrageenan (Viscarin 402) solution into the right hind paw of the animal. The test compounds were administered orally 30 minutes before injection of carrageenan. The volume of the right hind foot was measured with a Plethysmometer (Trade mark) (Ugo-Basile Co.) just before administration of the test compound and 3 hours after injection of carrageenan to determine the edema intensity [(right foot volume after 3 hours/right foot volume before injection)-1].
(The carrageenan paw model is a standard test of acute inflammation.)

The test system of a further data set is gastric mucosa. Description: Irritative effect on gastric mucosa. To be noted: oral; dose producing 50% incidence of gastric ulcers, 3.5 hours after dosing. The data set is classed as in vivo, Wistar rats. As to the method:
Experiments were performed according to the method described by Jahn and Adrian [Arzneim.-Forsch. 19, 36, (1969)]. Male Wistar rats weighing approximately 120 g were fasted for 16 hours before the experiment. The drugs were administered orally to rats as described in Experiment 3. Three and the half hours after dosing, the animals were killed under ether-anesthesia and the stomachs were placed into 1% of formalin. The stomach was opened by cutting along the greater curvature and the number and length of lesions were counted under a microscope (6.3×10). The ulcerogenicity in each animal was assessed according to Hitchens et. al. [Pharmacologist 9, 242, (1967)]. Incidence was determined as the rate of rats with 4 or more ulcers of more than 0.5 mm length, and UD50's (doses producing 50% incidence) were calculated from the incidence and the dose by probit (=probability unit) method.

The test system of data set [4] is yeast-inflamed pain in rats. Description: Analgesic effect on yeast-inflamed pain in rats (Randall-Selitto method). The class given is in vivo, Wistar-Imamichi rats. Particulars: Rattus norvegicus, oral, pain threshold 0.5, 1 and 2 hours after administration, read-out: Efficacy Rate (No. of animals in which drug was effective/No. of animals used in test) (converted). As to the method:
The compound was suspended in 0.5%tragacanth and administered orally at a volume of 5 ml/kg. The control group was administered with 0.5% tragacanth only as a vehicle.
Wistar-Imamichi rats (males, 5 week old, body weights: 80-100 g) were used in this test.
The test was conducted in accordance with the method of Winter and Flataker [J. Pharmacol. Exp. Ther. 150, 165-171, (1965)], which is a modification of the original method of Randall and Selitto [Arch. Int. Pharmacodyn. Ther. 111, 405-419, (1957)]. The rats were fasted for 16 hours prior to use. Inflammation was induced by subcutaneous injection of 0.1 ml of a suspension of 20% beer yeast (Sigma) into the right hind footpad of the animal. After 4.5 hours, increasing pressure was applied to the inflamed footpad at a constant speed using an Analgesy meter (Trade mark) (Ugo-Basile Co.).
First the average of pain threshold values at each time point (0.5, 1, and 2 hr) was calculated in a control group. If a pain threshold value exceeded 2 times the control average value at the same time point even once in the drug-treated groups, then the animal was considered to indicate efficacy. Efficacy rates of the drug were estimated by the evaluation method of Blake [J. Pharm. Pharm. 19, 367-373, (1967)].

Some results are limits rather than exact numbers.

Consider `Cc1cc(-c2ccc(S(N)(=O)=O)cc2)n(-c2ccc(Cl)c(Cl)c2)c1` [Example 103], for which the IC50 in data set [1] amounted to 3.7 µM. In addition, in data set [2], the IC50 turned out to be 0.01 µM and the “Selectivity (COX-1/COX-2)” value is given as 370. The inhibition in vivo at 50 mg/kg in data set [3] turned out to be 56%. Moreover, the “UD50” value with gastric mucosa is on record as more than 100 mg/kg.

`Cc1cc(-c2ccc(S(N)(=O)=O)cc2)n(-c2ccc(F)cc2)c1` [Example 20, 1-(4-Fluorophenyl)-4-methyl-2-(4-sulfamoylphenyl) pyrrole]: in data set [1], the IC50 is 85 µM. In data set [2], the IC50 came to 0.023 µM and the “Selectivity (COX-1/COX-2)” value is recorded as 3696.

For `Cc1ccc(-n2cc(C)cc2-c2ccc(S(N)(=O)=O)cc2)cc1` [Example 58, 4-Methyl-1-(4-methylphenyl)-2-(4-sulfamoylphenyl) pyrrole], in data set [1], the IC50 is 6.3 µM. Moreover, in data set [2], the IC50 is 0.019 µM and the “Selectivity (COX-1/COX-2)” value amounted to 332.

As for `Cc1cc(-c2ccc(S(N)(=O)=O)cc2)n(-c2ccc(F)c(Cl)c2)c1` [Example 108], the IC50 in data set [1] is 6 µM; in data set [2], less than 0.01 µM. Moreover, the “Selectivity (COX-1/COX-2)” value in data set [2] is on record as more than 600. For the same compound, the inhibition in vivo at 50 mg/kg in data set [3] is 58%.

On to `Cc1cc(-c2ccc(S(N)(=O)=O)cc2)n(-c2ccc3c(c2)OCO3)c1` [Example 109], for which the values for the IC50 in data set [1] and in data set [2] were 3.8 µM and 0.023 µM, respectively. Besides, the “Selectivity (COX-1/COX-2)” value in data set [2] was 165. Besides, in data set [3], the inhibition in vivo at 50 mg/kg came to 77%.

As to `Cc1cc(-c2ccc(S(C)(=O)=O)cc2)n(-c2ccc(C)c(C)c2)c1` [Example 56, 4-Methyl-1-(3,4-dimethylphenyl)-2-(4-methylsulfonylphenyl)pyrrole], the IC50 in data set [1] was more than 100 µM. In data set [2], the IC50 was 0.018 µM and the “Selectivity (COX-1/COX-2)” value was more than 5556.

On to `Cc1cc(-c2ccc(Cl)cc2)n(-c2ccc(S(N)(=O)=O)cc2)c1` [Example 65, 2-(4-Chlorophenyl)-4-methyl-1-(4-sulfamoylphenyl) pyrrole], for which the half-inhibitory concentration (IC50) in data set [1] is 13 µM; in data set [2] it was 0.015 µM. For the same compound, in data set [2], the “Selectivity (COX-1/COX-2)” value is 867. In addition, in data set [4], the responders at 12.5 mg/kg is 100%. The “UD50” value in the data set with gastric mucosa was more than 100 mg/kg.

Turning to `COc1ccc(-n2cc(C)cc2-c2ccc(S(N)(=O)=O)cc2)cc1` [Example 62, 1-(4-Methoxyphenyl)-4-methyl-2-(4-sulfamoylphenyl)pyrrole], the IC50 in data set [1] is 1.5 µM. In addition, in data set [2], the IC50 is 0.0097 µM and the “Selectivity (COX-1/COX-2)” value was determined as 153. The responders at 12.5 mg/kg in data set [4] was 100%. For the same compound, the inhibition in vivo at 50 mg/kg in data set [3] came out at 55%.

As for `Cc1cc(-c2ccc(S(N)(=O)=O)cc2)n(-c2ccc(F)cc2)c1Cl` [Example 38, 5-Chloro-1-(4-fluorophenyl)-4-methyl-2-(4-sulfamoylphenyl)pyrrole], the IC50 was more than 100 µM in data set [1] and 0.023 µM in data set [2]. Also, the “Selectivity (COX-1/COX-2)” value in data set [2] was more than 4348.

For `COc1ccc(-c2c(C)ccn2-c2ccc(S(N)(=O)=O)cc2)cc1` [Example 73, 2-(4-Methoxyphenyl)-3-methyl-1-(4-sulfamoylphenyl)pyrrole], in data set [1], the IC50 amounted to 3 µM. Besides, in data set [2], the IC50 came out at 0.025 µM and the “Selectivity (COX-1/COX-2)” value turned out to be 120. Also, the inhibition in vivo at 50 mg/kg in data set [3] is 72%.

As for `COc1ccc(-c2cc(C)cn2-c2ccc(S(C)(=O)=O)cc2)cc1` [Example 80, 2-(4-Methoxyphenyl)-4-methyl-1-(4-methylsulfonylphenyl)pyrrole], the results for the IC50 in data set [1] and in data set [2] were 25 µM and 0.011 µM, respectively. In addition, the “Selectivity (COX-1/COX-2)” value in data set [2] is on record as 2273. Also, the “UD50” value in the data set with gastric mucosa is more than 100 mg/kg.

As a reminder, the IC50 is the concentration needed to halve the response being measured.

Values taken from patent USRE39420E1, “1,2-Diphenylpyrrole derivatives, their preparation and their therapeutic uses” (Sankyo Company, Limited, priority 1996, dated 2006).
